{"source": "patent US20240148821A1", "about": "“PHARMACEUTICAL USE OF CYCLIC PEPTIDE COMPOUND” (CHUGAI SEIYAKU KABUSHIKI KAISHA, priority 2021, published 2024)", "key": {"[1]": {"system": "Human pancreatic cancer cell line AsPC-1 (G12D mutation Kras)", "assay": "AsPC-1 cell growth inhibition (AsPC-1 CGI)", "type": "cell-based", "details": "read-out: AsPC-1 cell growth inhibition, 50% growth inhibitory concentration (IC50 value); 96 hours, CellTiter-Glo, values classified in ranges"}, "[2]": {"target": "protein-protein interaction between Kras and SOS1 (biotin-tagged human Kras loaded with GDP, His-tagged human SOS1) (Homo sapiens (Human), UniProt P01116, G12D)", "assay": "Protein-protein interaction inhibition between Kras and SOS1 (KrasG12D-SOS PPI) using AlphaScreen;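 note: kras produced in E. coli, Ni-coupled donor beads and streptavidin acceptor beads, excitation 680 nm with emission detected at 520–620 nm via singlet oxygen transfer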", "type": "biochemical", "details": "AlphaScreen; biotin-tagged human Kras loaded with GDP, His-tagged human SOS1; read-out: KRAS G12D-SOS PPI IC50"}}, "note": "Bridge positions count the residues as written; N and C are the ends. Square brackets hold non-standard residues; d marks the D form. Peptide text beside a SMILES is read from it. * marks the point of attachment. hPhe(3,5-F2-4-CF3) = N[C@@H](CCc1cc(F)c(C(F)(F)F)c(F)c1)C(=O)O; hPhe(3-Cl-4-CF3) = N[C@@H](CCc1ccc(C(F)(F)F)c(Cl)c1)C(=O)O; hPhe(3-F,4-CF3) = N[C@@H](CCc1ccc(C(F)(F)F)c(F)c1)C(=O)O; NEtPhe(4-CF3) = CCN[C@@H](Cc1ccc(C(F)(F)F)cc1)C(=O)O; NMePhe(4-Me) = CN[C@@H](Cc1ccc(C)cc1)C(=O)O; NMeGly(cPent) = CN[C@H](C(=O)O)C1CCCC1; NMeCha = CN[C@@H](CC1CCCCC1)C(=O)O; NMeChg = CN[C@H](C(=O)O)C1CCCCC1; NMeF = CN[C@@H](Cc1ccccc1)C(=O)O; NMeI = CC[C@H](C)[C@H](NC)C(=O)O; NMeD = CN[C@@H](CC(=O)O)C(=O)O; NMeL = CN[C@@H](CC(C)C)C(=O)O; NEtAla = CCN[C@@H](C)C(=O)O; NMeV = CN[C@H](C(=O)O)C(C)C; d(β3hA) = C[C@@H](N)CC(=O)O; NMeAbu = CC[C@H](NC)C(=O)O; NMeC = CN[C@@H](CS)C(=O)O; NMeS = CN[C@@H](CO)C(=O)O; NMeA = CN[C@@H](C)C(=O)O; Piperidide = C1CCN(*)CC1; Pyrrolidide = C1CCN(*)C1; Ac5c = NC1(C(=O)O)CCCC1; Aze = O=C(O)[C@@H]1CCN1; Cyclobutyl = C1CC(*)C1; NBuGly = CCCCNCC(=O)O; Sar = CNCC(=O)O", "data": [{"molecule": "CC[C@H](C)[C@@H]1NC(=O)[C@H](CC(C)C)N(C)C(=O)C[C@@H](C(=O)N2CCCCC2)N(C)C(=O)[C@H](C2CCCC2)N(C)C(=O)C2(CCCC2)NC(=O)[C@@H]2CCCN2C(=O)[C@H](CCc2ccc(C(F)(F)F)c(Cl)c2)NC(=O)CN(C)C(=O)[C@H](COC2CCC2)N(C)C(=O)[C@@H]2CCN2C(=O)[C@H](C)N(C)C1=O", "note": "[Compound 835] ([NMeL]I[NMeA][Aze][NMeS](Cyclobutyl)[Sar][hPhe(3-Cl-4-CF3)]P[Ac5c][NMeGly(cPent)][NMeD]-Piperidide; lactam N-11)", "values": [{"measurement": "IC50", "setting": "[1]", "value": "≤ 20", "unit": "nM"}, {"measurement": "IC50", "setting": "[2]", "value": 0.54, "unit": "nM"}]}, {"molecule": "CC[C@H](C)[C@@H]1NC(=O)[C@H](CC(C)C)N(C)C(=O)C[C@@H](C(=O)N2CCCCC2)N(C)C(=O)[C@H](C(C)C)N(C)C(=O)C2(CCCC2)NC(=O)[C@@H]2CCCN2C(=O)[C@H](CCc2ccc(C(F)(F)F)c(Cl)c2)NC(=O)CN(C)C(=O)[C@H](CC2CCCCC2)N(C)C(=O)[C@@H]2CCN2C(=O)[C@H](C)N(CC)C1=O", "note": "[Compound 443] ([NMeL]I[NEtAla][Aze][NMeCha][Sar][hPhe(3-Cl-4-CF3)]P[Ac5c][NMeV][NMeD]-Piperidide; lactam N-11)", "values": [{"measurement": "IC50", "setting": "[1]", "value": "> 500", "unit": "nM"}, {"measurement": "IC50", "setting": "[2]", "value": 30, "unit": "nM"}]}, {"molecule": "CC[C@H](C)[C@@H]1NC(=O)[C@H](CC(C)C)N(C)C(=O)CSC[C@@H](C(=O)N(C)C)N(C)C(=O)[C@H](C2CCCC2)N(C)C(=O)C2(CCCC2)NC(=O)[C@@H]2CCCN2C(=O)[C@H](CCc2ccc(C(F)(F)F)c(F)c2)NC(=O)CN(C)C(=O)[C@H](C2CCCC2)N(C)C(=O)[C@@H]2CCN2C(=O)[C@H](C)N(C)C1=O", "note": "[Compound 2179] ({CH2CO}-[NMeL]I[NMeA][Aze][NMeGly(cPent)][Sar][hPhe(3-F,4-CF3)]P[Ac5c][NMeGly(cPent)][NMeC]-NMe2; thioether N-11)", "values": [{"measurement": "IC50", "setting": "[1]", "value": "> 500", "unit": "nM"}, {"measurement": "IC50", "setting": "[2]", "value": 540, "unit": "nM"}]}, {"molecule": "CC[C@H](C)[C@@H]1NC(=O)[C@H](C)N(C)C(=O)C[C@@H](C)NC(=O)[C@H](C2CCCC2)N(C)C(=O)C2(CCCC2)NC(=O)[C@@H]2CCCN2C(=O)[C@H](CCc2ccc(C(F)(F)F)c(Cl)c2)NC(=O)CN(C)C(=O)[C@H](Cc2ccccc2)N(C)C(=O)[C@@H]2CCCN2C(=O)CN(C)C1=O", "note": "[Compound 1004] (cyclo([Ac5c][NMeGly(cPent)][d(β3hA)][NMeA]I[Sar]P[NMeF][Sar][hPhe(3-Cl-4-CF3)]P))", "values": [{"measurement": "IC50", "setting": "[1]", "value": "> 500", "unit": "nM"}, {"measurement": "IC50", "setting": "[2]", "value": 13, "unit": "nM"}]}, {"molecule": "CC[C@H](C)[C@@H]1NC(=O)[C@H](CC(C)C)N(C)C(=O)C[C@@H](C(=O)N2CCCC2)N(C)C(=O)[C@H]([C@@H](C)CC)N(C)C(=O)C2(CCCC2)NC(=O)[C@@H]2CCCN2C(=O)[C@H](CCc2ccc(C(F)(F)F)c(Cl)c2)NC(=O)CN(C)C(=O)[C@H](CC2CCCCC2)N(C)C(=O)[C@@H]2CCN2C(=O)[C@H](C)N(C)C1=O", "note": "[Compound 1843] ([NMeL]I[NMeA][Aze][NMeCha][Sar][hPhe(3-Cl-4-CF3)]P[Ac5c][NMeI][NMeD]-Pyrrolidide; lactam N-11)", "values": [{"measurement": "IC50", "setting": "[1]", "value": "≤ 20", "unit": "nM"}, {"measurement": "IC50", "setting": "[2]", "value": 0.84, "unit": "nM"}]}, {"molecule": "CC[C@H](C)[C@@H]1NC(=O)[C@H](CC(C)C)N(C)C(=O)C[C@@H](C(=O)N2CCCCC2)N(C)C(=O)[C@H](CC)N(C)C(=O)C2(CCCC2)NC(=O)[C@@H]2CCCN2C(=O)[C@H](CCc2ccc(C(F)(F)F)c(Cl)c2)NC(=O)CN(C)C(=O)[C@H](CC2CCCCC2)N(C)C(=O)[C@@H]2CCN2C(=O)[C@H](C)N(C)C1=O", "note": "[Compound 1678] ([NMeL]I[NMeA][Aze][NMeCha][Sar][hPhe(3-Cl-4-CF3)]P[Ac5c][NMeAbu][NMeD]-Piperidide; lactam N-11)", "values": [{"measurement": "IC50", "setting": "[1]", "value": "> 500", "unit": "nM"}, {"measurement": "IC50", "setting": "[2]", "value": 26, "unit": "nM"}]}, {"molecule": "CC[C@H](C)[C@@H]1NC(=O)[C@H](CC(C)C)N(C)C(=O)C[C@@H](C)NC(=O)[C@H](C2CCCC2)N(C)C(=O)[C@@H](C(C)C)NC(=O)[C@@H]2CCCN2C(=O)[C@H](CCc2ccc(C(F)(F)F)c(Cl)c2)NC(=O)CN(C)C(=O)[C@H](Cc2ccc(C)cc2)N(C)C(=O)[C@@H]2CCN2C(=O)[C@H](C)N(C)C1=O", "note": "[Compound 598] (cyclo([Aze][NMePhe(4-Me)][Sar][hPhe(3-Cl-4-CF3)]P[dV][NMeGly(cPent)][d(β3hA)][NMeL]I[NMeA]))", "values": [{"measurement": "IC50", "setting": "[1]", "value": "> 500", "unit": "nM"}, {"measurement": "IC50", "setting": "[2]", "value": 300, "unit": "nM"}]}, {"molecule": "CCCCN1CC(=O)NC2(CCCC2)C(=O)N(C)[C@@H](C2CCCCC2)C(=O)N(C)[C@H](C(=O)N2CCCCC2)CC(=O)N(C)[C@@H](CC(C)C)C(=O)N[C@@H]([C@@H](C)CC)C(=O)N(C)CC(=O)N(C)CC(=O)N(C)[C@@H](CC2CCCCC2)C(=O)N(C)CC(=O)N[C@@H](CCc2ccc(C(F)(F)F)c(Cl)c2)C1=O", "note": "[Compound 848] ([NMeL]I[Sar][Sar][NMeCha][Sar][hPhe(3-Cl-4-CF3)][NBuGly][Ac5c][NMeChg][NMeD]-Piperidide; lactam N-11)", "values": [{"measurement": "IC50", "setting": "[1]", "value": "> 500", "unit": "nM"}, {"measurement": "IC50", "setting": "[2]", "value": 16, "unit": "nM"}]}, {"molecule": "CC[C@H](C)[C@@H]1NC(=O)[C@H](CC(C)C)N(C)C(=O)C[C@@H](C(=O)N2CCCC2)N(C)C(=O)[C@H]([C@@H](C)CC)N(C)C(=O)C2(CCCC2)NC(=O)[C@@H]2CCCN2C(=O)[C@H](CCc2cc(F)c(C(F)(F)F)c(F)c2)NC(=O)CN(C)C(=O)[C@H](Cc2ccc(C(F)(F)F)cc2)N(CC)C(=O)[C@@H]2CCN2C(=O)[C@H](C)N(C)C1=O", "note": "[Compound 1175] ([NMeL]I[NMeA][Aze][NEtPhe(4-CF3)][Sar][hPhe(3,5-F2-4-CF3)]P[Ac5c][NMeI][NMeD]-Pyrrolidide; lactam N-11)", "values": [{"measurement": "IC50", "setting": "[1]", "value": "≤ 20", "unit": "nM"}, {"measurement": "IC50", "setting": "[2]", "value": 0.79, "unit": "nM"}]}]}
